From ChEMBL document CHEMBL5715940 (Curr Biol, 2007) come the findings set out here.

Test [1] concerns the target Serine/threonine-protein kinase PLK1 (Homo sapiens) (UniProt P53350). Description: Inhibition of Plk1 in human HeLa cells assessed as high level of cyclin B in total lysates of cells arrested in mitosis at 50 ng/ml for 13 hr after the second thymidine release by immunoblot analysis.
The subject of test [2] is HeLa. Description: Induction of mitotic arrest in human HeLa cells assessed as cell population in prophase incubated for 4 hrs after thymidine release relative to control relative to control. Type of test: functional.
In test [3] the test system is HeLa. Description: Induction of mitotic arrest in human HeLa cells assessed as increase of cell population in prophase incubated for 3 hrs after thymidine release. Type of test: functional, cell-based.
The subject of test [4] is HeLa. Description: Induction of mitotic arrest in human HeLa cells assessed as increase of cell population in prophase incubated for 6 hrs after thymidine release. It counts as functional, cell-based.
Test [5] has as its system HeLa. In words: Induction of mitotic arrest in human HeLa cells with stably express GFP-tagged histone H2B assessed as chromosome condensation measured at 730 mins after thymidine release. It counts as functional, cell-based.
Test [6] deals with HeLa. Description: Induction of mitotic arrest in human HeLa cells with stably express GFP-tagged histone H2B assessed as decrease in prometaphase after thymidine release. Type of test: functional, cell-based.
Test [7] concerns HeLa. Description: Induction of mitotic arrest in human HeLa cells with expressing H2B-GFP assessed as enter the apoptosis at 100 nM. Type of test: functional, cell-based.
For test [8], the system named is HeLa. Description: Induction of mitotic arrest in human HeLa cells with expressing H2B-GFP assessed as cells formed multilobed nuclei at 100 nM in the presence of hesperadin. It counts as functional, cell-based.
Test [9] concerns HeLa. In words: Induction of mitotic arrest in human HeLa cells assessed as weakly centrosome in prometaphase arrested cells at 100 nM for 2 hrs by immunofluorescence analysis. It counts as functional, cell-based.
For test [10], the system named is HeLa. In words: Induction of mitotic arrest in human HeLa cells assessed as dim kinetochore signal in prometaphase arrested cells at 100 nM for 2 hrs by immunofluorescence analysis. It counts as functional, cell-based.
Test [11] concerns HeLa. In words: Induction of mitotic arrest in human HeLa cells s stably expressing CENPA-GFP assessed as prophase microtubule asters at 100 nM for 4 hr after release by immunofluorescence analysis. Type of test: functional, cell-based.
In test [12] the test system is HeLa. In words: Induction of mitotic arrest in human HeLa cells s stably expressing CENPA-GFP assessed as appear on mitotic microtubule at 100 nM for 4 hr release after NEBD by immunofluorescence analysis. It counts as functional, cell-based.
Test [13] deals with HeLa. In words: Induction of mitotic arrest in human HeLa cells s stably expressing CENPA-GFP assessed as microtubules instantaneously organized to monopolar spindle at 100 nM for 4 hrs after NEBD by immunofluorescence analysis. It counts as functional, cell-based.
The subject of test [14] is HeLa. In words: Induction of mitotic arrest in human HeLa cells s stably expressing CENPA-GFP assessed as spindles lost astral microtubules at 10 uM within 10 to 30 mins by live cell imaging analysis. Type of test: functional, cell-based. To be noted: time 10-30 min.
Test [15] concerns HeLa. Description: Induction of mitotic arrest in human HeLa cells s stably expressing CENPA-GFP assessed as focus on poles at 10 uM within 10 to 30 mins by live cell imaging analysis. Type of test: functional, cell-based. To be noted: time 10-30 min.
The subject of test [16] is HeLa. In words: Induction of mitotic arrest in human HeLa cells s stably expressing CENPA-GFP assessed as spindle poles often broadened at 10 uM for 30 mins by live cell imaging analysis. Type of test: functional, cell-based.
In test [17] the test system is HeLa. Description: Induction of mitotic arrest in human HeLa cells stably expressing CENPA-GFP assessed as appearance of shortened spindle formation at 10 uM incubated for 120 mins by live cell imaging analysis. Type of test: functional, cell-based.
The test system of test [18] is HeLa. Description: Induction of mitotic arrest in human HeLa cells s stably expressing CENPA-GFP assessed as appearance of kinetochore pairs lose at 10 uM for 60 mins by live cell imaging analysis. It counts as functional, cell-based.
The test system of test [19] is HeLa. In words: Induction of mitotic arrest in human HeLa cells assessed as appearance of spindles lose the focused poles at 100 nM for 30 mins after thymidine release in the presence of MG132 by immunofluorescence microscopy. It counts as functional, cell-based.
Test [20] has as its system HeLa. In words: Induction of mitotic arrest in human HeLa cells assessed as appearance of shortened spindle formation at 100 nM for 60 mins after thymidine release in the presence of MG132 by immunofluorescence microscopy. It counts as functional, cell-based.
The subject of test [21] is HeLa. In words: Induction of mitotic arrest in human HeLa cells assessed as appearance of collapse spindle formation at 100 nM for 120 mins after thymidine release in the presence of MG132 by immunofluorescence microscopy. It counts as functional, cell-based.
Test [22] relates to HeLa. In words: Induction of mitotic arrest in human HeLa cells assessed as microtubule structures at 100 nM incubated for 2 hrs after cold treatment by immunofluorescence analysis. Type of test: functional, cell-based.
Test [23] relates to HeLa. In words: Induction of mitotic arrest in human HeLa cells assessed as appearance of kinetochore plates connected to few microtubules and lateral attachment at 100 nM incubated for 2 hrs after cold treatment by transmission electron microscopy. It counts as functional, cell-based.
The test system of test [24] is HeLa. In words: Induction of mitotic arrest in human HeLa cells assessed as appearance of kinetochore in opposite side of the chromosomes at 100 nM incubated for 2 hrs after cold treatment by transmission electron microscopy. It counts as functional, cell-based.
Test [25] has as its system HeLa. Description: Induction of mitotic arrest in human HeLa cells s stably expressing CENPA-GFP assessed as attachment of kinetochores to microtubule at 10 uM for 2 hrs by live cell imaging analysis. Type of test: functional, cell-based.
In test [26] the test system is HeLa. Description: Induction of mitotic arrest in human HeLa cells assessed as K-fibers persisted cells at […] incubated for 2 hrs after cold treatment by immunofluorescence analysis. Type of test: functional, cell-based.
Test [27] deals with HeLa. Description: Induction of mitotic arrest in human HeLa cells assessed as appearance of microtubule bundles visible at many kinetochores at […] incubated for 2 hrs after cold treatment by transmission electron microscopy. Type of test: functional, cell-based.
The test system of test [28] is HeLa. In words: Induction of mitotic arrest in human HeLa cells assessed as appearance of kinetochore plates arranged on the spindle center at […] incubated for 2 hrs after cold treatment by transmission electron microscopy. Type of test: functional, cell-based.
In test [29] the target is Serine/threonine-protein kinase PLK1 (Homo sapiens) (UniProt P53350). To be noted: HeLa, dose 100.0 nM, time 12.0 min.
For test [30] the target is unchanged. To be noted: HeLa, dose 100.0 nM, time 12.0 min. The source holds these as a separate data set.
In test [31] the test system is HeLa. Description: Induction of mitotic arrest in human HeLa cells with expressing H2B-GFP assessed as cells formed multilobed nuclei at 100 nM. It counts as functional, cell-based.
Test [32] has as its target Serine/threonine-protein kinase PLK1 (Homo sapiens) (UniProt P53350). Description: Inhibition of Plk1 in human HeLa cells assessed as low level of cyclin B in total lysates of cells arrested in mitosis at 100 nM for 13 hr after the second thymidine release by immunoblot analysis. (In general: A western blot detects proteins with antibodies after separation by electrophoresis.)

Each structure is given as a SMILES string. The source made the active and inactive calls. No cut-off for these calls is given here. Residues, ends and D or L forms follow the SMILES beside them. *: point of attachment. Cbz = O=C(OCc1ccccc1)*

Sequence of Serine/threonine-protein kinase PLK1 (Homo sapiens) (P53350 whole entry): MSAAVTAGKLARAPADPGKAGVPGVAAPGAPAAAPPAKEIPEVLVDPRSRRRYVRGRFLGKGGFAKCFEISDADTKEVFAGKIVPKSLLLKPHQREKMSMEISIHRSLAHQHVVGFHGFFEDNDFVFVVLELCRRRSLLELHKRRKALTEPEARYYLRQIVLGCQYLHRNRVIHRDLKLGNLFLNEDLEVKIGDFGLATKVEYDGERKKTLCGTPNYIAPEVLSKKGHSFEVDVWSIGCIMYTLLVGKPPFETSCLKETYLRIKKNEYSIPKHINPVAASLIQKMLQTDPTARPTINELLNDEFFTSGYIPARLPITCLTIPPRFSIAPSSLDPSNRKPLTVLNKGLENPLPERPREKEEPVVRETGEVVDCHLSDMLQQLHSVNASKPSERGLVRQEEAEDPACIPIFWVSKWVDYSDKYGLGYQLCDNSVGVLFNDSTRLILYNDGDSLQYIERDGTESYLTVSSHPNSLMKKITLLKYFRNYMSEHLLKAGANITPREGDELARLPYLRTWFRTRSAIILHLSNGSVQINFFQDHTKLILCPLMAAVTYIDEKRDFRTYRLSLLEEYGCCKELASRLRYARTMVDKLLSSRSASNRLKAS

Consider `COC(=O)Nc1nc2cc(C(=O)c3cccs3)ccc2[nH]1`, for which the inhibition entry in test [1] was “Active”.

On to `CC[C@@H]1C(=O)N(C)c2cnc(Nc3ccc(C(=O)NC4CCN(C)CC4)cc3OC)nc2N1C1CCCC1` [BI-2536], for which the Activity in the test with HeLa [2] was found to be 30%. The outcome in the test with HeLa [3], in the test with HeLa [4], in the test with HeLa [5], in the test on HeLa [6], in the test on HeLa [7] and in the test with HeLa [8] was Active. Moreover, the outcome in the test with HeLa [9], with HeLa [10], with HeLa [12], with HeLa [13], in the test on HeLa [14] and with HeLa [15] was Active. In addition, the result in the test with HeLa [16], in the test with HeLa [17], in the test on HeLa [18], with HeLa [19], in the test on HeLa [20] and with HeLa [21] was Active. In addition, the result in the test on HeLa [23] and with HeLa [24] was Active. The result with HeLa [11] and with HeLa [22] was inactive.

With `CC(C)C[C@@H](C=O)NC(=O)[C@H](CC(C)C)NC(=O)[C@H](CC(C)C)NC(=O)OCc1ccccc1` (Cbz-Leu-Leu-Leu-aldehyde), the result with HeLa [25] was Active.

As for `CCOC(=O)C1=C(C)NC(=S)NC1c1cccc(O)c1` (stereo not drawn) [MONASTROL], the Activity in the test on HeLa [2] was determined as 5%. For the same compound, the outcome with HeLa [26], in the test on HeLa [27] and in the test with HeLa [28] was Active. Also, the inhibition entry in test [29] and in test [30] was “Active” each time.

As for `CCS(=O)(=O)Nc1ccc2c(c1)/C(=C(\Nc1ccc(CN3CCCCC3)cc1)c1ccccc1)C(=O)N2`, the outcome with HeLa [31] was Active. Besides, in [32], the inhibition entry is “Active”.
